Experiment [1] deals with FGF2-induced angiogenesis in the chorioallantoic membrane (CAM). Description: FGF2-induced neovascularization on the chick chorioallantoic membrane (CAM), branch point count. It is filed as in vivo. The note with it: for Average # of Branch Points: FGF2 filter disk on CAM, peptide 16 μg topically, 48 h; for % Inhibition of branch point formation: 16 μg, FGF2-stimulated CAM. As to the method: In vivo neovascularization was examined by the method previously described by Auerbach et al. (J. Dev. Biol. 41:391-394 (1974)). Ten-day old embryos were purchased from Spafas, Inc. (Preston, Conn.) and were incubated at 37° C. with 55% relative humidity. In the dark with the help of a candling lamp a small hole was punctured in the shell concealing the air sac with a hypodermic needle. A second hole was punctured in the shell on the broadside of the egg directly over an […] portion of the embryonic membrane, as observed during candling. A false air sac was created beneath the second hole by the application of negative pressure to the first hole, which caused the chorioallantoic membrane (CAM) to separate from the shell. A window, approximately 1.0 cm^2, was cut in the shell over the dropped CAM with the use of a small crafts grinding wheel (Dremel, Division of Emerson Electric Company Racine, WI) which allowed direct access to the underlying CAM. Filter disks of #1 filter paper (Whatman International, United Kingdom) were soaked in 3 mg/mL cortisone acetate (Sigma, St. Louis, Mo.) in a solution of 95% ethanol and water and subsequently air dried under sterile conditions. FGF2 (Life Technologies, Gaithersburg, Md.) was used to grow vessels on the CAMs of 10-d old chick embryos. Sterile filter disks adsorbed with FGF2 dissolved in PBS at 1 μg/mL were placed on growing CAMs. At 24 h, test compounds or control vehicle was added directly to CAMs topically.
CAM tissue directly beneath FGF2-saturated filter disk was resected from embryos treated 48 h prior with compound or control. Tissues were washed three times with PBS. Sections were placed in a 35-mm petri dish (Nalge Nunc, Rochester, N.Y.) and examined under a SV6 stereomicroscope (Karl Zeiss, Thornwood, N.Y.) at 50× magnification. Digital images of CAM sections adjacent to filters were collected using a 3-CCD color video camera system (Toshiba America, New York, N.Y.) and analyzed with the Image-Pro Plus software (Media Cybernetics, Silver Spring, Md.) and can be seen in FIG. 2. Table 3 contains the number of vessel branch points contained in a circular region equal to the area of a filter disk counted for each section. Percent inhibition data is expressed as the quotient of the experimental value minus the negative control value divided by the difference between the positive control value and the negative control value.

Experiment [2] concerns Human umbilical vein endothelial cells (HUVEC). As to the kind of experiment: FGF2-stimulated endothelial cell tube formation on Matrigel matrix. The note with it: for Inhibition of FGF2-stimulated EC tube formation, in words: in vitro, qualitative ranking; for % inhibition cell tube formation (area) / % inhibition cell tube formation (length): peptide 0.015 μmol, FGF2-stimulated HUVEC; for Cell Tube Formation (area) / Cell Tube Formation (length): HUVEC on Matrigel, FGF2 100 ng/mL, peptide 0.015 μmol added with FGF2, overnight; for Cell Tube Formation (length): length/area. It is filed as cell-based. As to the method: Differentiation by endothelial cells was examined using a method developed by Grant et al. (In Vitro Cell Dev. Biol. 27A:327-336 (1991)). Matrigel® matrix, phenol-red free (commercially available from Becton Dickinson, Bedford, Mass.) was thawed overnight at 4° C. Using cold pipette tips, 3.0 mg/well of Matrigel® matrix was placed in a cold twenty-four-multiwell plate (Falcon). Matrigel® matrix was allowed to polymerize during incubation at 37° C. for 30 min. Human umbilical vein endothelial cells (HUVEC) were maintained at 37° C. with 5% CO2 and 95% humidity in endothelial cell growth medium with 2% fetal bovine serum (EGM). Tube assay was performed in endothelial cell basal medium (EBM) supplemented with 0.5% bovine serum albumin (BSA) and 1:100 diluted Insulin-Transferrin-Selenium-G supplement (I-T-Se, 100×). HUVEC were trypsinized and centrifuged and subsequently, washed twice in phosphate buffered saline (PBS). After counting, cell density was adjusted to 35,000 cells/mL. At final concentration of 35,000 cells/mL/well were treated with recombinant human fibroblast growth factor basic (FGF2) at 100 ng/mL and peptides (see below) dissolved in EBM medium at to a concentration of 0.015 μmol. Treated cells were incubated overnight at 37° C. with 5% CO2 and 95% humidity to allow cell attachment. Subsequently, the medium was aspirated and cells were fixed and stained using a modified HEMA-3 stain kit. Digital images of microtiter well sections were collected using a DKC5000 3-CCD color video camera system (Toshiba America, New York, N.Y.) and analyzed with the Image-Pro Plus software (Media Cybernetics, Silver Spring, Md.). The area and major axis length of stained cells having a tubular morphology on the Matrigel® matrix surface (Becton Dickinson, Bedford, Pa.) counted from 5 images/well.

The subject of experiment [3] is human melanoma cells. To be noted: cited from earlier work.
For experiment [4], the system named is human melanoma cells. The note with it: cited from earlier work. The source holds these as a separate data set.
Experiment [5] concerns TSU-Pr (human prostrate) tumor. To be noted: 45 μg, after 7 d.
Experimental: Ten million tumor cells were placed on the surface of each CAM (7-d old embryo) and were cultured for one week. The resulting tumors were excised and cut into 50 mg fragments. […] Each treatment group incorporated at least ten tumors per experiment. Representative tumors were photographed at 10× magnification. Tumors were then excised from the egg and tumor weights were determined for each tumor. Data is presented as mean tumor weight per treatment group (±standard error of the mean). Statistical analysis was performed using Student's t-test.

“Also recorded” adds a separate entry of the source. Where a SMILES comes first, the peptide text is derived from it. Where no end group is shown, it is not given here. [ ]: non-standard residue; d: D form. ξ: configuration not given here. ξHyp = O=C(O)C1CC(O)CN1

For Ser-Gln-Ser [SQS], the “% Inhibition of Branch Points in FGF2-Induced CAM Assay” value (shortened to “% Inhibition of Branch Points”) in experiment [1] (1 μg/CAM) came out at 101% +/− 7; in experiment [1] (5 μg/CAM) it was 121% +/− 6; in experiment [1] (15 μg/CAM), 82% +/− 7. For the same molecule, the “Inhibition of FGF2-stimulated EC tube formation, in words” value (shortened to “Inhibition … in words”) in experiment [2] is on record as “most potent”.
In the case of `CC(=O)N[C@@H](CO)C(=O)N[C@@H](CC(N)=O)C(=O)N[C@H](CO)C(N)=O` [SNs] (Ac-Ser-Asn-[dS]-NH2), the results for the “% Inhibition of Branch Points” value in experiment [1] (1 μg/CAM), in experiment [1] (5 μg/CAM) and in experiment [1] (15 μg/CAM) were 62% +/− 7, 78% +/− 6 and 69% +/− 8, respectively. The “Inhibition … in words” value in experiment [2] is “most potent”.
As for “CNYYSNSYSFWLASLNPER [SEQ ID NO:1, peptide of residues 185-203 of the NC1 domain of the α3-chain of collagen type IV]”, the “Inhibition of proliferation of human melanoma cells” value in the experiment with human melanoma cells [3] is recorded as 40%. Further, the “Promotion of adhesion of human melanoma cells over controls” value in the experiment on human melanoma cells [4] is recorded as 50-60%.
Turning to “acetyl-Cys-Asn-Tyr-Tyr-Ser-Asn-Ser-Tyr-Ser-Phe-Trp-Leu (Ac-CNYYSNSYSFWL) [SEQ ID NO: 4, As defined in b173]”, in experiment [2], the “% inhibition cell tube formation (area)” value is listed as 71% +/− 6 and the “% inhibition cell tube formation (length)” value was found to be 54% +/− 3.
Consider “FGF2: recombinant human fibroblast growth factor basic, angiogenic stimulus [reference compound]”, for which the “Average # of Branch Points” value in experiment [1] is listed as 263.88. Also, in experiment [2], the “Cell Tube Formation (area)” value is reported as 2.2501 +/− 0.28 10^4 square microns and the “Cell Tube Formation (length)” value is listed as 79.8272 +/− 8.66 mm/mm^2.
`CC(=O)N[C@@H](CO)C(=O)N[C@@H](CC(N)=O)C(=O)N1CC(O)CC1C(N)=O` (stereo partly drawn) [SN-t4Hyp] (Ac-Ser-Asn-[ξHyp]-NH2): the “% Inhibition of Branch Points” value in experiment [1] (1 μg/CAM) is given as 39% +/− 11; in experiment [1] (5 μg/CAM), 60% +/− 7; in experiment [1] (15 μg/CAM) it was 71% +/− 8. Besides, in experiment [2], the “Inhibition … in words” value is “most potent”.
With “acetyl-Ser-Asn-Ser-Tyr-Ser-Phe-Trp-Leu (Ac-SNSYSFWL) [SEQ ID NO: 3, As defined in b173]”, in experiment [2], the “% inhibition cell tube formation (area)” value stood at 75% +/− 7 and the “% inhibition cell tube formation (length)” value was 65% +/− 3.
On to `CC(=O)NC(CO)C(=O)NC(CC(N)=O)C(=O)NC(CO)C(N)=O` (stereo not drawn) [acetyl-SNS-carboxamide, acetyl-Ser-Asn-Ser-carboxamide] (Ac-Ser-Asn-Ser-NH2; configuration not given here), for which, in experiment [1], the “% Inhibition of branch point formation” value is reported as 100.23% and the “Average # of Branch Points” value worked out at 91.60. Further, the “% Inhibition of branch point formation” value in experiment [1] (listed as acetyl-Ser-Asn-Ser-carboxamide) came out at 100%. For the same molecule, the “% ave inhibition of TSU-Pr tumor growth (weight)” value in experiment [5] (injected into tumors) turned out to be 111%. In addition, the “Tumors showing significant weight shrinkage” value in experiment [5] (ten tumors injected) is recorded as “Six tumors out of the ten”. For the same molecule, in experiment [2], the “Cell Tube Formation (area)” value is reported as 1.1011 +/− 0.12 10^4 square microns; the “Inhibition … in words” value is “very potent inhibitor; also recorded: more potent inhibitor”; the “Cell Tube Formation (length)” value is listed as 47.5267 +/− 4.31 mm/mm^2; the “% inhibition cell tube formation (area)” value was 97% +/− 8. For the same molecule, the “% inhibition cell tube formation (length)” value in experiment [2] is recorded as 84% +/− 9.

Values taken from US6815426B2, “Angiogenesis-inhibitory tripeptides, compositions and their methods of use” (E. I. du Pont de Nemours and Company, priority 2001, dated 2004).
